We go through 90 molecules from a melting point compilation (Tetko et al.; mined from patent text by program, amines drawn as free bases though some values may be those of a salt).

Each structure is given as a SMILES string. Where only a bound is given, the exact number is not on record here.

`CCCCCCCCCCCCNC(=O)c1cc(Br)c(OCCn2cnnn2)c(-c2cccc(OC)c2)c1` returned a melting point of 100 to 101 °C.

In the case of `CN(c1cccc2cc(C3=NCC(CC(=O)NS(C)(=O)=O)S3)[nH]c12)S(=O)(=O)c1cccs1` (stereo not given), the melting point is 141 °C.

Regarding `CC(OCc1cc2cc(Cl)ccc2n1S(=O)(=O)c1ccc2c(c1)OCCO2)C(=O)O` (stereo not given), the melting point was 70 °C.

`Cc1ccc(C(O)c2ccc(N)cc2)nc1` (stereo not given): the melting point is 114 to 115 °C.

For the molecule `O=[N+]([O-])c1cc[nH]c1-c1ccccc1`, the melting point was 190 to 192 °C.

Molecule `Cc1ccc(C(=O)Nc2ccccc2C(=O)NCCc2ncc[nH]2)cc1` returned a melting point of 209 to 214 °C.

Turning to `COc1ccc2c(c1)CC(Nc1ccc(O)cc1)C2` (stereo not given), the melting point lay in the range of 144 to 146 °C.

Molecule `CC(C)(C)c1cc(-c2n[nH]c(=O)s2)cc(C(C)(C)C)c1O` came in with a melting point of 229 °C.

`CC1(C)CC(c2c[nH]c(-c3ccc(F)cc3)c2-c2ccncc2)CC(C)(C)N1` had a melting point of 242 to 243 °C.

The molecule `CCc1c(C(=O)C(C)C)c2ccc(C#N)cc2n1Cc1ccccc1Cl` showed a melting point of 132 to 134 °C.

For the molecule `CON(C)c1nc(C)cc(O)n1`, the melting point lay within 128 to 129 °C.

Turning to `COC(=O)c1ccc(C=CC(=O)N2CCc3c([nH]c4ccccc34)C2c2ccccc2)cc1` (stereo not given), the melting point is 222 °C.

Consider `Cc1ccc2c(=O)c3cc(F)ccc3sc2c1`, for which the melting point was in the range of 166 to 170 °C.

`CC(C)(C)c1ccc(C(=O)Nc2cn3cc(-c4cn[nH]c4)ccc3n2)cc1` gave a melting point of 278 to 280 °C.

`Cc1nc2n(c(=O)c1CCBr)CCCS2` registered a melting point of 215 °C.

For `CN1C(=O)C2(COc3cc4c(cc32)OCO4)c2c(C3CCOC3)cccc21` (stereo not given), the melting point lay in the range of 182 to 184 °C.

As for `Clc1cn2ccnc2c(Br)n1`, the melting point was 146 to 147 °C.

On to `O=c1[nH]cc(-c2cc(-c3cnc4ccccc4c3)ccn2)n1-c1ccc(N2CCNCC2)c(C(F)(F)F)c1`, for which the melting point is 155 °C.

In the case of `CN(C)c1ccc2c(c1)C(=O)N(c1ccc3c(c1)CCN3C)C2`, the melting point was in the range of 268 to 270 °C.

The molecule `O=S(=O)(CCl)c1cccc2ccccc12` had a melting point of 103 to 105 °C.

In turn, `Nc1ncccc1C(=O)NCC1CCN(C[C@H]2COc3ccc(Br)cc3O2)CC1` returned a melting point of 158 to 160 °C.

`COc1ccc(-c2nc(OC(=O)N(C)C)nn2-c2ccc(OC)cc2)cc1` had a melting point of 121 to 123 °C.

Regarding `Cc1c(Cl)ccc(N)c1Cl`, the melting point lay in the range of 56 to 57.5 °C.

In turn, `NC(=O)C(=O)NCCC(F)=C(F)F` registered a melting point of 190 to 220 °C.

Turning to `CCC(=O)Nc1c(-n2cncn2)cnn1-c1c(Cl)cc(C(F)(F)F)cc1Cl`, the melting point lay within 167 to 169 °C.

`Cc1cc2c(c(C)c1O)C(C)CN2C(=O)C(C)C` (stereo not given) registered a melting point of 123 to 125 °C.

As for `Cc1ccc(NC(=O)c2ccc([N+](=O)[O-])cc2)cc1`, the melting point was 140 to 146 °C.

For the molecule `CC(=O)OCCn1c([N+](=O)[O-])cnc1C`, the melting point lay within 143 to 145 °C.

In turn, `O=C(CCNC(=O)c1ccccc1)NCCSC(=O)c1ccccc1` yielded a melting point of 154 to 155 °C.

On to `CCOC(=O)CSc1nc2cc([N+](=O)[O-])ccc2[nH]1`, for which the melting point came out at 114 °C.

On to `CNC(=O)c1ccc(N2CCN(Cc3cc(C)c4c(c3)NC(=O)C(C)O4)CC2)c(C)c1` (stereo not given), for which the melting point fell in the range of 113 to 120 °C.

As for `O=C(O)C1Cc2[nH]c3ccc(OCc4ccccc4)cc3c2C1` (stereo not given), the melting point lay within 161 to 163 °C.

`COc1ccc2c(ccn2CC(=O)c2ccccc2Br)n1` gave a melting point of 116 to 117 °C.

Take `CCN(CC)C(=O)OCC1CN(C(=O)c2cc(OC)c(OC)c(OC)c2)CCN1C(=S)c1cc(OC)c(OC)c(OC)c1` (stereo not given): the melting point was found to be 175 °C.

Turning to `O=c1cc(C2CCCC2)oc2ccc(OCCCCCCCl)cc12`, the melting point was 125 to 126 °C.

Turning to `COC(=O)C(C)Oc1ccc(N(C)c2nnc3cc(Cl)ccc3n2)cc1` (stereo not given), the melting point turned out to be 120 °C.

The molecule `CC(C)OC(=O)c1cc(-n2c(=O)c3c(n(C)c2=O)OCC3)c(F)cc1Cl` registered a melting point of 170 to 173 °C.

`COC(=O)Cc1ccc(OCCNC(=O)C2Cc3ccccc3N2S(=O)(=O)c2ccc(-c3cc(C(F)(F)F)ccc3Cl)cc2)c(OC)c1` (stereo not given) had a melting point of 51 to 58 °C.

On to `OC1CCNc2ncc(Br)cc21` (stereo not given), for which the melting point lay within 125 to 128 °C.

In the case of `c1ccc(Pc2ccccc2)cc1`, the melting point is 128 to 131 °C.

`CCOC(=O)C=Cc1ccc(Oc2ccc([N+](=O)[O-])cc2)c(Cl)c1Cl` displayed a melting point of 145 to 146 °C.

For `CCN1C(CNC(=O)c2cc(Cl)c(N)cc2OC)CCC1c1ccccc1` (stereo not given), the melting point was 187 to 188 °C.

`CCOC(=O)/C=C(/c1ccc(OC)cc1)c1cccc(C#N)c1`: the melting point fell in the range of 105 to 106 °C.

As for `CC(N)Oc1cccc2c1ccn2S(=O)(=O)c1ccccc1F` (stereo not given), the melting point is 147 to 150 °C.

`N#Cc1nn(-c2c(Cl)cc(C(F)(F)F)cc2Cl)cc1C1CC(F)(F)C1` had a melting point of 128 to 129 °C.

`CC(=O)C1CCC2C3=C(C(=O)CC12C)C1(C)CCC(O)CC1CC3` (stereo not given) yielded a melting point of 170 to 172 °C.

As to `Cc1cc(C)n2ncc([N+](=O)[O-])c2n1`, the melting point lay in the range of 156 to 157 °C.

`NC1CCCn2c1nc(-c1ccncc1)cc2=O` (racemic) had a melting point of 144 to 146 °C.

With `CC(C)(C)OC(=O)NCCS(C)(=O)=O`, the melting point fell in the range of 85 to 86 °C.

As for `CC(=O)Nc1nc(-c2ccc(CCC(=O)O)cc2)c(Cc2ccc(S(C)(=O)=O)cc2)s1`, the melting point is 208 to 210 °C.

As to `CC(c1ccc(F)cc1)N1CCN(c2cc(Oc3cccc4ccncc34)ncn2)CC1` (stereo not given), the melting point came to 114 °C.

Molecule `CC(C)(C)C1NN(c2ccc(N)cc2Br)C(=O)O1` (stereo not given) gave a melting point of 170 to 172 °C.

In turn, `CNC1NC(=O)N(c2ccccc2)C(=O)N1N` (stereo not given) yielded a melting point of 242 to 244 °C.

`COc1cc2ncc(C#N)c(Nc3ccc(C)c(Br)c3)c2cc1OC`: the melting point fell in the range of 292 to 294 °C.

In the case of `COc1ccc(CC(=O)N2CCC3(CC2)Cc2ccccc2O3)cc1`, the melting point was in the range of 87 to 88 °C.

`CCCC(CCNC(=O)C(C#N)=Cc1ccc(O)c(O)c1)NC(=O)C(C#N)=Cc1ccc(O)c(O)c1` (stereo not given) returned a melting point of 263 °C.

Molecule `O=C(Nc1ccc(F)c(NS(=O)(=O)c2cccs2)c1)c1ccc(F)c(F)c1` showed a melting point of 202 to 203 °C.

Regarding `COC(=O)c1c(-c2ccccc2Cl)c2cc(C)c(C)cc2[nH]c1=O`, the melting point lay in the range of 288 to 289 °C.

`Cc1cc(C)cc(Sc2c(C)c[nH]c(=O)c2NC=O)c1`: the melting point was in the range of 221 to 222 °C.

Molecule `COc1cc2c(cc1O)CCN(Cc1cc(F)cc(F)c1)C2` returned a melting point of 110 to 111 °C.

In turn, `Fc1cccc(-c2nc(Nc3ccc(Cl)cc3)c3ccccc3n2)n1` registered a melting point of 118 to 121 °C.

`Cc1cc(F)ccc1Nc1nc(N(C)c2ccccc2)c2cc(OCCCN3CCOCC3)ccc2n1`: the melting point was in the range of 119 to 120 °C.

On to `O=[N+]([O-])c1cnc2ccc(-c3ccccc3)cc2c1Nc1ccccc1Br`, for which the melting point was 198 to 204 °C.

On to `Cc1cc(S(=O)(=O)c2cc(C)c(O)c(C3CCCCC3)c2)cc(C2CCCCC2)c1O`, for which the melting point was 264 to 265 °C.

`O=[N+]([O-])c1ccc(CO)c(Nc2nccc(-c3cccnc3)n2)c1` displayed a melting point of 247 to 250 °C.

Turning to `CC(C)(C)c1ccc(S(=O)(=O)Nc2nc(-c3ncccn3)nc(OCCO)c2-c2cccs2)cc1`, the melting point was 236 to 237 °C.

`COc1ccc2nc(C3=CCN(Cc4ccc(Cl)cc4)CC3)[nH]c2c1` yielded a melting point of 203 to 205 °C.

On to `Cc1nc2c(N)nc3ccccc3c2n1CCOC/C=C/c1ccccc1`, for which the melting point was 112 °C.

Turning to `COC(=O)c1sc2c(c1C)c1ccccc1n2C`, the melting point fell in the range of 166 to 167 °C.

`O=C1Nc2cccnc2N(C(=O)N2CCCC(CCCCN3CCCC3)C2)c2ccccc21` (stereo not given) registered a melting point of 153 to 156 °C.

`O=C(Nc1ccccc1F)c1ccccn1` showed a melting point of 112 to 115 °C.

`COc1ccc(C(=C(C)P(c2ccccc2)c2ccccc2)c2ccc(OC)cc2)cc1`: the melting point lay within 123 to 125 °C.

`Cc1cc([N+](=O)[O-])cc(C)c1NS(=O)(=O)CCSCCN` had a melting point of 159 °C.

Molecule `CCC(=O)NCCC1CCc2ccc3ncoc3c21` (stereo not given) showed a melting point of 89 to 90 °C.

In turn, `Cc1c(N)c(F)cc2c(=O)c(C(=O)O)cn(-c3cc(O)c(F)cc3F)c12` displayed a melting point of more than 280 °C.

`CCCCC[C@H]1CC[C@H](c2ncc(O)cn2)CC1` gave a melting point of 190 to 191 °C.

The molecule `COC(=O)c1ccc(OC)cc1I` displayed a melting point of 185 °C.

Molecule `COc1ccccc1C(CSc1ccccc1N)C(=O)O` (stereo not given) yielded a melting point of 85 °C.

The molecule `COC(=O)COC(=O)C(Cl)=Cc1cc(-n2ncc(C(F)(F)F)c(C)c2=O)c(F)cc1Cl` gave a melting point of 88 to 91 °C.

For `CCC(O)(c1ccccc1)c1ccc(C(=O)O)cc1` (stereo not given), the melting point lay in the range of 128 to 130 °C.

As for `CC(C)C(C)CCC(C)C1CCC2C3CCC4CC(OC(=O)c5ccccc5)CCC4(C)C3CCC12C` (stereo not given), the melting point lay within 232 to 234 °C.

Turning to `CCCc1cc2cc(NC(=O)OCC)ccc2o1`, the melting point lay in the range of 69 to 70 °C.

`CCCNC(=O)c1ccccc1N=C(NC(=O)c1ccccc1)SC` had a melting point of 86 to 89 °C.

For `COc1cc(Nc2nccc(-c3ccc(NC4CCN(Cc5ccccc5)CC4)nc3)n2)cc(OC)c1OC`, the melting point lay within 113 to 114 °C.

The molecule `CCOC(=O)c1ncn2c1CN(C)C(=O)c1cc(C#N)ccc1-2` displayed a melting point of 184 °C.

In the case of `COc1ccc2c(c1)cc1n2CCC(COC(C)=O)C1` (stereo not given), the melting point was 98 to 100 °C.

`O=C1C=C(C2CCCCNC2=O)CCC1` (stereo not given) showed a melting point of 159 to 165 °C.

`O=C(CC(=O)c1ccc(C(F)(F)F)cc1[N+](=O)[O-])c1ccc([N+](=O)[O-])cc1` showed a melting point of 139 to 140 °C.

For `Cc1ncc(CN2CCCNC2=C[N+](=O)[O-])s1`, the melting point was in the range of 204 to 207 °C.

As to `COc1ccc(-n2c(=O)[nH]c3cc(Cl)cc(Cl)c3c2=O)cc1`, the melting point was 294 to 296 °C.
